Read-outs that look alike come from different tables or passages of the source.
Legend:
human Gal-1 (hGal-1) = human Gal-1 (hGal-1) (Homo sapiens (Human), UniProt P09382); assay: competitive binding assay: biotinylated hGal-1 binding to microplate-adsorbed asialofetuin (ASF); details: Table 15; read-out: IC50 (Galectin-1 inhibition)
Outline: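 Biotinylated human Gal-1 (300-1000 ng/mL) competes with serially diluted compound for binding to ASF-coated plates, 3 h at 4° C. Bound protein detected with streptavidin-peroxidase and ABTS substrate (spectrophotometric). IC50 given as mean of several measurements.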

human Gal-3 (hGal-3) = human Gal-3 (hGal-3) (Homo sapiens (Human), UniProt P17931); assay: competitive binding assay: biotinylated hGal-3 binding to microplate-adsorbed asialofetuin (ASF)
Chain of human Gal-3 (hGal-3) (P17931 whole entry): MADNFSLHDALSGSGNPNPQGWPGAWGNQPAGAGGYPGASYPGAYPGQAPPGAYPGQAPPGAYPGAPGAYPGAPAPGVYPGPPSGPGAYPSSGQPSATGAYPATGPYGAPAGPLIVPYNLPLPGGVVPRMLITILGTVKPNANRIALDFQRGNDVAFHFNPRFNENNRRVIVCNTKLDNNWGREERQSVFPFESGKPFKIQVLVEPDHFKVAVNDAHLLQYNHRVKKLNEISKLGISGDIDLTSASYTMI
Outline: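 Competition of compounds with biotinylated human Gal-3 for asialofetuin-coated plates, 3 hours at 4° C. Bound Gal-3 detected with streptavidin-peroxidase (80 ng/mL, 1 hour, 4° C) and ABTS substrate. IC50 reported as the mean of several measurements.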

[1] = Gal-3 inhibition, binding of biotinylated hGal-3 to ASF, mean values, read-out: IC50
[2] = Table 9, 2-OMe-Gal inhibitors, read-out: IC50 (Gal-3 inhibition)
[3] = Table 10, 2-OMe-Gal inhibitors, read-out: IC50 (Gal-3 inhibition)

Chain of human Gal-1 (hGal-1) (P09382 whole entry): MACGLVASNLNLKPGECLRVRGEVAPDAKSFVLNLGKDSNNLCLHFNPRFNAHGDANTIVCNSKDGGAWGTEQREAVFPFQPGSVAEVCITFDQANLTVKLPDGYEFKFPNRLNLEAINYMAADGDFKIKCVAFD

Structure (SMILES)	IC50 (human Gal-1 (hGal-1)) [nM]	IC50 (human Gal-3 (hGal-3); [1]) [nM]	IC50 (human Gal-3 (hGal-3); [2]) [nM]	IC50 (human Gal-3 (hGal-3); [3]) [nM]
Cc1cccnc1[C@H](S[C@@H]1O[C@H](CO)[C@H](O)[C@H](n2cc(-c3cc(F)c(F)c(F)c3)nn2)[C@H]1O)C1(O)CCC(F)(F)CC1 [Example 2.44.126S., (2S,3R,4S,5R,6R)-2-(((S)-(4,4-Difluoro-1-hydroxycyclohexyl)(3-methylpyridin-2-yl)methyl)thio)-6-(hydroxymethyl)-4-(4-(3,4,5-trifluorophenyl)-1H-1,2,3-triazol-1-yl)tetrahydro-2H-pyran-3,5-diol]	26500	3350		
CCO[C@@H]1[C@@H](n2cc(-c3cc(F)c(F)c(F)c3)nn2)[C@@H](O)[C@@H](CO)O[C@H]1S[C@@H](c1ncccc1C)C1(O)CCC(F)(F)CC1 [Example 2.44.126S.II., (2R,3R,4S,5R,6S)-6-(((S)-(4,4-Difluoro-1-hydroxycyclohexyl)(3-methylpyridin-2-yl)methyl)thio)-5-ethoxy-2-(hydroxymethyl)-4-(4-(3,4,5-trifluorophenyl)-1H-1,2,3-triazol-1-yl)tetrahydro-2H-pyran-3-ol]	24300	980		
Cc1nccnc1C(S[C@@H]1O[C@H](CO)[C@H](O)[C@H](n2cc(-c3cc(F)c(F)c(F)c3)nn2)[C@H]1O)C1(O)CCC(F)(F)CC1 (stereo partly drawn) [Example 2.44.129., (2S,3R,4S,5R,6R)-2-(((4,4-Difluoro-1-hydroxycyclohexyl)(3-methylpyrazin-2-yl)methyl)thio)-6-(hydroxymethyl)-4-(4-(3,4,5-trifluorophenyl)-1H-1,2,3-triazol-1-yl)tetrahydro-2H-pyran-3,5-diol]	350	90		
Cc1nccnc1[C@@H](S[C@@H]1O[C@H](CO)[C@H](O)[C@H](n2cc(-c3cc(F)c(F)c(F)c3)nn2)[C@H]1O)C1(O)CCC(F)(F)CC1 [Example 2.44.129R., (2S,3R,4S,5R,6R)-2-(((R)-(4,4-Difluoro-1-hydroxycyclohexyl)(3-methylpyrazin-2-yl)methyl)thio)-6-(hydroxymethyl)-4-(4-(3,4,5-trifluorophenyl)-1H-1,2,3-triazol-1-yl)tetrahydro-2H-pyran-3,5-diol]	200	30		
CO[C@@H]1[C@@H](n2cc(-c3cc(F)c(F)c(F)c3)nn2)[C@@H](O)[C@@H](CO)O[C@H]1S[C@H](c1nccnc1C)C1(O)CCC(F)(F)CC1 [Example 2.44.129R.I., (2R,3R,4S,5R,6S)-6-(((R)-(4,4-Difluoro-1-hydroxycyclohexyl)(3-methylpyrazin-2-yl)methyl)thio)-2-(hydroxymethyl)-5-methoxy-4-(4-(3,4,5-trifluorophenyl)-1H-1,2,3-triazol-1-yl)tetrahydro-2H-pyran-3-ol [1,3-di-deoxy-1-((4,4-difluoro-1-hydroxy-cyclohexan-1-yl)-(3-(-methyl)pyrazin-2-yl)methyl-(R)-thio)-2-O-methyl-3-[4-(3,4,5-trifluorophenyl)-1H-1,2,3-triazol-1-yl]-b-D-galactopyranoside]]	300		50	
Cc1nccnc1[C@H](S[C@@H]1O[C@H](CO)[C@H](O)[C@H](n2cc(-c3cc(F)c(F)c(F)c3)nn2)[C@H]1O)C1(O)CCC(F)(F)CC1 [Example 2.44.129S., (2S,3R,4S,5R,6R)-2-(((S)-(4,4-Difluoro-1-hydroxycyclohexyl)(3-methylpyrazin-2-yl)methyl)thio)-6-(hydroxymethyl)-4-(4-(3,4,5-trifluorophenyl)-1H-1,2,3-triazol-1-yl)tetrahydro-2H-pyran-3,5-diol]	6300	1480		
CCc1c(C(S[C@@H]2O[C@H](CO)[C@H](O)[C@H](n3cc(-c4cc(F)c(F)c(F)c4)nn3)[C@H]2O)C2(O)CCC(F)(F)CC2)noc1C1CC1 (stereo partly drawn) [Example 2.44.130., (2S,3R,4S,5R,6R)-2-(((5-Cyclopropyl-4-ethylisoxazol-3-yl)(4,4-difluoro-1-hydroxycyclohexyl)methyl)thio)-6-(hydroxymethyl)-4-(4-(3,4,5-trifluorophenyl)-1H-1,2,3-triazol-1-yl)tetrahydro-2H-pyran-3,5-diol]	130	60		
CCc1c([C@@H](S[C@@H]2O[C@H](CO)[C@H](O)[C@H](n3cc(-c4cc(F)c(F)c(F)c4)nn3)[C@H]2O)C2(O)CCC(F)(F)CC2)noc1C1CC1 [Example 2.44.130R., (2S,3R,4S,5R,6R)-2-(((R)-(5-Cyclopropyl-4-ethylisoxazol-3-yl)(4,4-difluoro-1-hydroxycyclohexyl)methyl)thio)-6-(hydroxymethyl)-4-(4-(3,4,5-trifluorophenyl)-1H-1,2,3-triazol-1-yl)tetrahydro-2H-pyran-3,5-diol]	160	20		
CCc1c([C@@H](S[C@@H]2O[C@H](CO)[C@H](O)[C@H](n3cc(-c4cc(F)c(F)c(F)c4)nn3)[C@H]2OC)C2(O)CCC(F)(F)CC2)noc1C1CC1 [Example 2.44.130R.I.]	160			60
CCc1c([C@H](S[C@@H]2O[C@H](CO)[C@H](O)[C@H](n3cc(-c4cc(F)c(F)c(F)c4)nn3)[C@H]2O)C2(O)CCC(F)(F)CC2)noc1C1CC1 [Example 2.44.130S., (2S,3R,4S,5R,6R)-2-(((S)-(5-Cyclopropyl-4-ethylisoxazol-3-yl)(4,4-difluoro-1-hydroxycyclohexyl)methyl)thio)-6-(hydroxymethyl)-4-(4-(3,4,5-trifluorophenyl)-1H-1,2,3-triazol-1-yl)tetrahydro-2H-pyran-3,5-diol]	5650	1850		
CO[C@@H]1[C@@H](n2cc(-c3cc(F)c(F)c(F)c3)nn2)[C@@H](O)[C@@H](CO)O[C@H]1S[C@H](c1noc(C2CC2)c1CC(C)C)C1(O)CCC(F)(F)CC1 [Example 2.44.131R.I., (2R,3R,4S,5R,6S)-6-(((R)-(5-Cyclopropyl-4-isobutylisoxazol-3-yl)(4,4-difluoro-1-hydroxycyclohexyl)methyl)thio)-2-(hydroxymethyl)-5-methoxy-4-(4-(3,4,5-trifluorophenyl)-1H-1,2,3-triazol-1-yl)tetrahydro-2H-pyran-3-ol]	100			130
CC(C)Cc1c([C@H](S[C@@H]2O[C@H](CO)[C@H](O)[C@H](n3cc(-c4cc(F)c(F)c(F)c4)nn3)[C@H]2O)C2(O)CCC(F)(F)CC2)noc1C1CC1 [Example 2.44.131S., (2S,3R,4S,5R,6R)-2-(((S)-(5-Cyclopropyl-4-isobutylisoxazol-3-yl)(4,4-difluoro-1-hydroxycyclohexyl)methyl)thio)-6-(hydroxymethyl)-4-(4-(3,4,5-trifluorophenyl)-1H-1,2,3-triazol-1-yl)tetrahydro-2H-pyran-3,5-diol]	13700	9740		
CC(C)c1cccnc1C(S[C@@H]1O[C@H](CO)[C@H](O)[C@H](n2cc(-c3cc(F)c(F)c(F)c3)nn2)[C@H]1O)C1(O)CCC(F)(F)CC1 (stereo partly drawn) [Example 2.44.132., (2S,3R,4S,5R,6R)-2-(((4,4-Difluoro-1-hydroxycyclohexyl)(3-isopropylpyridin-2-yl)methyl)thio)-6-(hydroxymethyl)-4-(4-(3,4,5-trifluorophenyl)-1H-1,2,3-triazol-1-yl)tetrahydro-2H-pyran-3,5-diol]	160	100		
CC(C)c1cccnc1[C@@H](S[C@@H]1O[C@H](CO)[C@H](O)[C@H](n2cc(-c3cc(F)c(F)c(F)c3)nn2)[C@H]1O)C1(O)CCC(F)(F)CC1 [Example 2.44.132R., (2S,3R,4S,5R,6R)-2-(((R)-(4,4-Difluoro-1-hydroxycyclohexyl)(3-isopropylpyridin-2-yl)methyl)thio)-6-(hydroxymethyl)-4-(4-(3,4,5-trifluorophenyl)-1H-1,2,3-triazol-1-yl)tetrahydro-2H-pyran-3,5-diol]	50	50		
CO[C@@H]1[C@@H](n2cc(-c3cc(F)c(F)c(F)c3)nn2)[C@@H](O)[C@@H](CO)O[C@H]1S[C@H](c1ncccc1C(C)C)C1(O)CCC(F)(F)CC1 [Example 2.44.132R.I., (2R,3R,4S,5R,6S)-6-(((R)-(4,4-Difluoro-1-hydroxycyclohexyl)(3-isopropylpyridin-2-yl)methyl)thio)-2-(hydroxymethyl)-5-methoxy-4-(4-(3,4,5-trifluorophenyl)-1H-1,2,3-triazol-1-yl)tetrahydro-2H-pyran-3-ol]	100		120	
CC(C)c1cccnc1[C@H](S[C@@H]1O[C@H](CO)[C@H](O)[C@H](n2cc(-c3cc(F)c(F)c(F)c3)nn2)[C@H]1O)C1(O)CCC(F)(F)CC1 [Example 2.44.132S., (2S,3R,4S,5R,6R)-2-(((S)-(4,4-Difluoro-1-hydroxycyclohexyl)(3-isopropylpyridin-2-yl)methyl)thio)-6-(hydroxymethyl)-4-(4-(3,4,5-trifluorophenyl)-1H-1,2,3-triazol-1-yl)tetrahydro-2H-pyran-3,5-diol]	4700	2270		
OC[C@H]1O[C@@H](SC(c2nccnc2Cl)C2(O)CCC(F)(F)CC2)[C@H](O)[C@@H](n2cc(-c3cc(F)c(F)c(F)c3)nn2)[C@H]1O (stereo partly drawn) [Example 2.44.133., (2S,3R,4S,5R,6R)-2-(((3-Chloropyrazin-2-yl)(4,4-difluoro-1-hydroxycyclohexyl)methyl)thio)-6-(hydroxymethyl)-4-(4-(3,4,5-trifluorophenyl)-1H-1,2,3-triazol-1-yl)tetrahydro-2H-pyran-3,5-diol]	450	40		
